Assays:
[1] = tested on: souris; test: Phenylbenzoquinone (PBQ) writhing test (Siegmund), analgesic activity; assay type: in vivo; conditions: po, 0.5 h; mouse, per os 30 minutes before intraperitoneal PBQ injection; read-out: DE50 (the source's name)
Method: L'activité sur le test des contorsions à la phényl benzoquinone (PBQ) selon SIEGMUND et Coll., J. Pharm. Exptl. Ther. 1957, 119, 453, a été déterminée après administration du produit per os; la dose est exprimée en mg/kg chez la souris 30 minutes avant l'injection intra-péritonéale de l'agent algogène.
Les résultats sont exprimés en pourcentage de variation du nombre de contorsions. Pour les molécules les plus actives nous avons déterminé la DE50, les résultats sont répertoriés dans le tableau suivant : […]

[2] = Acute oral toxicity in mice (LD50, method of Miller and Tainter); conditions: in vivo; mouse about 20 g, oral administration; read-out: DL50 voie orale
From the text: L'étude de la toxicité a été effectuée chez la souris conventionnelle pesant environ 20 grammes.
Les substances ont été administrées par voie orale. Les doses létales 50 sont exprimées en mg/kg et ont été calculées selon la méthode de MILLER et TAINTER, Proc. Scc. Exper. Biol. Med. 1944, 57, 261.

[3] = Qualitative solubility in water and solvents; assay type: physicochemical; conditions: for Insoluble dans: media in which the compound is insoluble; for Soluble dans: media in which the compound is soluble
[4] = tested on: P.R.P. de LAPIN; test: In vitro platelet anti-aggregation, arachidonic acid-induced, in rabbit PRP; assay type: cell-based; conditions: dissolved in PEG 400, incubated 1 minute with PRP before arachidonic acid 2 x 10^-4M; ranking in words
From the text: Les produits sont dissous dans le PEG 400, puis additionnés au P.R.P. de LAPIN puis incubés une minute avant l'addition d'agent agrégant (acide arachidonique 2 x 10^-4M). Le produit le plus actif est le ST 938.

| Structure (SMILES) | ED50 [1] [mg/kg] | LD50 [2] [mg/kg] | Insoluble dans [3] | Soluble dans [3] | Propriétés antiagrégantes (in vitro) [4] |
| --- | --- | --- | --- | --- | --- |
| COc1ccc(-c2nc(=O)n(CCCN3CCN(C)CC3)nc2-c2ccc(OC)cc2)cc1 [ST 881, Dichlorhydratede l'oxo-3 N méthyl piperazinyl-3' propyl-2 di(paraméthoxyphényl)-5-6 as triazine] | 6.7 | > 1000 | le benzène, le chlorure de méthylène et le chloroforme | l'eau, les acides dilués et les alcools |  |
| COc1ccc(-c2nc(=O)n(CCO)nc2-c2ccc(OC)cc2)cc1 [ST 791, Oxo-3 hydroxyéthyl-2 di(paraméthoxyphényl)-5-6 as triazine] | 9 | > 1000 | l'eau, les bases et les acides dilués et l'éther | les alcools, le benzène, le chlorure de méthylène et le chloroforme |  |
| CN(C)c1ccc(-c2nc(=O)n(CCCCl)nc2-c2ccc(N(C)C)cc2)cc1 [ST 882, Oxo-3 γ-chloropropyl-2 di(paradiméthyiaminophényl) 5-6 as triazine] | 4.6 | > 1000 | l'eau et les bases diluées, et l'éther | les acides dilués aqueux, les alcools, le benzène, le chlorure de méthylène et le chloroforme |  |
| CCOC(=O)C(C(=O)OCC)n1nc(-c2ccc(OC)cc2)c(-c2ccc(OC)cc2)nc1=O [ST 824, Oxo-3 diéthylmalonyl-2 di(paraméthoxyphényl)-5-6 as triazine] |  | > 1000 | l'eau, les bases et les acides dilués et l'éther | les alcools, le benzène, le chlorure de méthylène et le chloroforme |  |
| CN(C)c1ccc(-c2nc(=O)n(CC(O)CO)nc2-c2ccc(N(C)C)cc2)cc1 (stereo not shown) [ST 886] | 5.6 | > 1000 | l'eau et les bases diluées, l'éther | les acides dilués aqueux, les alcools, le benzène, le chlorure de méthylène et le chloroforme |  |
| CN(C)c1ccc(-c2nc(=O)n(CCOC(=O)c3cccnc3)nc2-c2ccc(N(C)C)cc2)cc1 [ST 883, Oxo-3 nicotinoyloxyéthyl-2 di(paradiméthylaminophényl) 5-6 as triazine] | 3.1 | > 1000 | l'eau et les bases diluées, l'éther | les acides dilués, les alcools, le benzène, le chloroforme et le chlorure de méthylène |  |
| COc1ccc(-c2nc(=O)n(CCCCl)nc2-c2ccc(OC)cc2)cc1 [ST 938, Oxo-3 chloropropyl-2 di(paraméthoxyphényl)-5-6 as triazine] |  | ≥ 1000 | l'eau, les bases et les acides dilués et l'éther | les alcools, le benzène, le chlorure de méthylène et le chloroforme | le plus actif |
| CN(C)c1ccc(-c2nc(=O)n(CCO)nc2-c2ccc(N(C)C)cc2)cc1 [ST 817, Oxo-3 hydroxyéthyl-2 di(paradimétnylaminophényl)-5-6 as triazine] | 1.5 | > 1000 | les bases diluées aqueuses, l'eau, le benzène et l'éther | les acides dilués, les alcools, le chlorure de méthylène et le chloroforme |  |
| C=CCNCCCn1nc(-c2ccc(OC)cc2)c(-c2ccc(OC)cc2)nc1=O [ST 876, Oxalatede l'oxo-3 γallylamino propyl-2 di(paraméthoxyphényl)-5-6 as triazine] |  | 750 | le benzène, l'éther et le chloroforme | l'eau, les alcools, et le chlorure de méthylène |  |
| COc1ccc(-c2nc(=O)n(CCN3CCOCC3)nc2-c2ccc(OC)cc2)cc1 [ST 728, Oxo-3 morpholino éthyl-2 di(paraméthoxyphényl)-5-6 as triazine] |  | > 1000 | l'eau, les bases diluées et l'éther | les acides, les alcools, le benzène, le chlorure de méthylène et le chloroforme |  |
| COc1ccc(-c2nc(=O)n(C(C)CN(C)C)nc2-c2ccc(OC)cc2)cc1 (stereo not shown) [ST 766] | 11 | 750 | l'eau, les bases diluées, le benzène et l'éther | les acides dilués, les alcools, le chlorure de méthylène et le chloroforme |  |
| CN(C)c1ccc(-c2nc(=O)n(CC(N)=O)nc2-c2ccc(N(C)C)cc2)cc1 [ST 812, Oxo-3 acétamido-2 di(paradiméthylaminophényl)-5-6 as triazine] | 12 | > 1000 | l'eau, les bases diluées, les alcools, le benzène et l'éther | les acides dilués et le chlorure de méthylène |  |
| C=COCCn1nc(-c2ccc(OC)cc2)c(-c2ccc(OC)cc2)nc1=O [ST 777, Oxo-3 vinyloxyéthyl-2 di(paraméthoxyphényl)-5-6 as triazine] | 10 | > 1000 | l'eau, les bases et les acides dilués et l'éther | les alcools, le benzène, le chlorure de méthylène et le chloroforme |  |

— patent EP0099438A1, “2-Functionalised diaryl as-triazines useful in therapy” (PIERRE FABRE S.A., priority 1982, dated 1984)
